Measurements: US12391962B2, “Targeting peptide to deliver a compound to oocytes” (THE PENN STATE RESEARCH FOUNDATION, priority 2017, dated 2025)
Values joined by “and” are separate entries in the source; they are usually repeats but may differ in a detail not shown here. Equal entries are not always repeated. “Also recorded” adds a separate entry of the source.

Experiments:
[1] = system: Bombus impatiens ovaries; assay: Transduction of mCherry into ovaries with vitellogenin-derived targeting peptide; assay type: in vivo; conditions: injection into adult females
From the text: (§1) Several targeting peptides, including […] (Bemisia tabaci, SEQ ID NO: 26), […] (Bombus impatiens, SEQ ID NO: 27), […] (Ixodes scapularis, SEQ ID NO: 28), or […] (Danio rerio, SEQ ID NO: 29), were further validated. The DNA encoding these peptides were synthesized, fused to the fluorescent reporter proteins GFP or mCherry (with a HIS tag to aid in purification), and cloned into pET28. The plasmids were then transformed into E. coli BL21 (NEB) and Rosetta2™ (DE3) pLysS competent cells, with the transformation being verified by […].
(§2) To induce expression of the recombinant protein, a preculture was grown overnight at 30° C. in 50 mL of Luria Broth (LB) supplemented with […] chloramphenicol and […] kanamycin. After 12 hours, 10 mL of preculture was transferred to 900 mL of LB supplemented with the same antibiotics, incubated at 37° C. until OD=0.6. Then 0.05 mM isopropyl β-D-1-thiogalactopyranoside (IPTG) was added and the culture incubated overnight at 30° C.
(§3) Cells were spun down at >10,000×g for 15 min, resuspended in 50 mL lysis buffer (20 mM Tris-HCl, pH 8.0, 300 mM NaCl, 20 mM imidazole), placed at −80° C. overnight and incubated with lysozyme (1 mg/ml) and 100 ppm of […] (PMSF) for 30 min at 4° C. The suspension was sonicated 5 times at 60% duty 5 seconds pulse 5 seconds rest (two aliquots each 20 mL), centrifuged at 13,000×g for 30 min, the supernatant removed and incubated with Ni-NTA beads (Qiagen) with rotation at 4° C. overnight. Beads were washed 3 times with 10 mL lysis buffer and eluted with 1 mL elution buffer (20 mM Tris-HCl, pH 8.0, 300 mM NaCl, 250 mM imidazole) 10 times. Eluted protein was dialyzed in a Slide-A-Lyzer dialysis cassette (Thermo Fisher) for two hours in dialysis buffer (50 mM Tris-HCl, pH 8.0, 300 mM KCl, 0.1 mM EDTA, 0.5 mM PMSF) and buffer changed every 2 hours, for 2 times, then left overnight at 4° C. with gentle agitation in fresh buffer, Protein purity was visualized by SDS-PAGE and concentration estimated using Bradford assay. […]

[2] = system: B. tabaci white gene; assay: Knockout of the B. tabaci white gene by ReMOT Control (adult female injection); assay type: in vivo, Bemisia tabaci
Protocol: The females were injected and placed on a piece of soybean leaflet in a petri dish with a moist paper towel wrapped around the stem and another paper towel on the bottom plate to prolong the life of the leaflet. Water and liquid fertilizer were added as needed. Females were removed from the leaflet 2 weeks post injection. The petri dishes were incubated at 28° C., 16L/8D cycle, in a humidified Heratherm IMH750-S reach-in chamber, and the progeny of injected females screened visually for altered eye color in nymphs or adults using an Olympus SZX7 stereomicroscope. Mutations in insects showing altered eye color were confirmed by PCR using PHIRE Tissue Direct PCR Master Mix (Thermo Fischer Scientific), the amplicon was cloned into pJET1.2, and clones were submitted for Sanger sequencing.
For proof of principle gene editing experiments, we chose the white gene, which is an ABC transporter protein responsible for transport of ommochrome pigments into the eyes.

[3] = system: kmo gene; assay: Paternal allele knockout by adult female injection: white eye females x wild-type males; assay type: in vivo, Aedes aegypti; conditions: EER co-injected with RNP; for mosaic offspring per injected females with the endosomal release reagent: 48-52 h PBF, 1/20 females; for altered offspring with the endosomal release reagent: females injected at 48-52 h PBF
From the text: After mating as described in the above, females (generation −1; G−1) were blood fed and injected with P2C-Cas9 RNPs and EERs. Resulting G0 offspring were screened for kmo gene editing phenotypes (white or mosaic eyes). Genomic DNA from identified individuals was extracted using DNeasy blood and tissue kits (Qiagen) and the region spanning both kmo 460 and 519* sites amplified by PCR using primers ZA2210 (5′TTC-AAG-ACC-AGG-CCT-CAA-TC3′) (SEQ ID NO: 35) and KmR1 (5′TCA-CTA-AAC-TCA-GCC-AGT-ATC-CTA-T3′) (SEQ ID NO: 36) and cloned into the pJET1.2 vector. A minimum of 6 clones per individual were randomly selected and sequenced.
In order to estimate the frequency of paternal gene editing, homozygous Wh-Iso8-kmo^460 females outcrossed to homozygous wild type males were injected at 48-52 h PBF. […] The region spanning the target sites from the mosaic individual collected from saponin treatment was cloned and sequenced (FIG. 10A). […] The genomic DNA from the monensin and spontaneous white eye individuals were not of suitable quality for PCR and cloning.

[4] = system: Ae. aegypti females; assay: LD50 of endosomal escape reagents injected into the hemolymph 24h PBF; conditions: injected into the hemolymph of females 24h PBF; 100 females injected
[5] = system: Bemisia tabaci ovaries; assay: Transduction of mCherry into ovaries with vitellogenin-derived targeting peptide; assay type: in vivo; conditions: injection into adult females
From the text: as §1, §2, §3

[6] = system: Ixodes scapularis ovaries; assay: as above; assay type: in vivo; conditions: injection into adult females
From the text: as §1, §2, §3

[7] = system: Aedes aegypti ovaries; assay: as above; assay type: in vivo; conditions: injection into adult females
[8] = system: mealybug ovaries; assay: P2C-mediated delivery of EGFP to mealybug ovaries; assay type: in vivo; conditions: procedure of Example 1
Protocol: To determine if P2C could be used in to deliver cargo in species other than mosquito, it was tested on mealybugs using the procedure of Example 1. […] Therefore, P2C is an effective targeting molecule in more than just mosquitoes.

[9] = system: Anopheles gambiae oocytes; assay: Ovary uptake of EGFP fusion proteins after injection into blood-fed females (fluorescence microscopy); assay type: in vivo
Protocol: To show DmYP1 (or fragments thereof) act as suitable ligands to deliver protein cargo into mosquito oocytes, a DmYP1-EGFP, or fragments of DmYP1-EGFP, fusion protein was expressed and injected into the thorax of Anopheles gambiae females 12 and 24 h post-blood feeding (PBF).
Injections were performed with an aspirator tube assembly (A5177, Sigma) fitted with a glass capillary needle. Adult females were immobilized at 4° C. following a bloodmeal and kept on ice during injection. Females were injected intrathoracically until no additional fluid would enter, at an approximate volume of 200 nl per female. To visually confirm EGFP in the ovaries following injection, ovaries were dissected, mounted in saline buffer mixed with SlowFade Gold® antifade reagent (Invitrogen), covered with a coverslip and imaged on an Olympus BX41 epifluorescent microscope. Negative controls were injected with recombinant EGFP lacking a targeting ligand.
A deletion analysis of the DmYP1 protein was conducted to identify the smaller region that efficiently transduced cargo into mosquito ovaries. Three portions of approximately 120 amino acids (FIG. 1) were encoded on an expression plasmid linked to EGFP via a Glycine-Serine linker. Fusion proteins included the DmYP1 secretion signal at the N-terminus. The construct was inserted into the plasmid pAc5-STABLE1-Neo under control of the Drosophila Actin5C promoter. Plasmids were transfected into Drosophila S2 cells using Lipofectamine® LTX WITH Plus™ Reagent (ThermoFisher). Cell culture supernatant was collected 72 hours post-transfection, concentrated 100× using Amicon® and Centricon® Plus-70 centrifugal filter devices (Millipore) and injected into female An. gambiae 12 and 24 hours PBF. Ovaries were dissected 12, 24 and 48 h hours post-injection, dissected and visualized for EGFP fluorescence. EGFP fusion protein fused to the full length DmYP1 protein (439 amino acids) was used as a positive control, while recombinant EGFP without a targeting ligand was used as a negative control.

[10] = system: Danio rerio ovaries; assay: Transduction of EGFP into ovaries with vitellogenin-derived targeting peptide; assay type: in vivo; conditions: injection into adult females
From the text: as §1, §2
Cells were spun down at >10,000×g for 15 min, resuspended in 50 mL lysis buffer (20 mM Tris-HCl, pH 8.0, 300 mM NaCl, 20 mM imidazole), placed at −80° C. overnight and incubated with lysozyme (1 mg/ml) and 100 ppm of […] (PMSF) for 30 min at 4° C. […]

[11] = biological target: T1, recombinant Cas9 (Streptococcus pyogenes serotype M1, UniProt Q99ZW2); assay: In vitro DNA cleavage assay; assay type: biochemical; conditions: gel separation
T1 construct: vector-derived additions of pET28a-Cas9-cys (the plasmid name implies an added Cys); made in house; host or cells: E. coli BL21 and Rosetta2 (DE3) pLysS
Protocol: Reactions were performed for 1 h at 37° C. and diagnostic bands visualized by electrophoresis in a 1% agarose/TAE gel.

[12] = injection 12 h PBF, Total of 2 replicates
[13] = injection 24 h PBF, Total of 2 replicates

T1 sequence (Q99ZW2 whole entry): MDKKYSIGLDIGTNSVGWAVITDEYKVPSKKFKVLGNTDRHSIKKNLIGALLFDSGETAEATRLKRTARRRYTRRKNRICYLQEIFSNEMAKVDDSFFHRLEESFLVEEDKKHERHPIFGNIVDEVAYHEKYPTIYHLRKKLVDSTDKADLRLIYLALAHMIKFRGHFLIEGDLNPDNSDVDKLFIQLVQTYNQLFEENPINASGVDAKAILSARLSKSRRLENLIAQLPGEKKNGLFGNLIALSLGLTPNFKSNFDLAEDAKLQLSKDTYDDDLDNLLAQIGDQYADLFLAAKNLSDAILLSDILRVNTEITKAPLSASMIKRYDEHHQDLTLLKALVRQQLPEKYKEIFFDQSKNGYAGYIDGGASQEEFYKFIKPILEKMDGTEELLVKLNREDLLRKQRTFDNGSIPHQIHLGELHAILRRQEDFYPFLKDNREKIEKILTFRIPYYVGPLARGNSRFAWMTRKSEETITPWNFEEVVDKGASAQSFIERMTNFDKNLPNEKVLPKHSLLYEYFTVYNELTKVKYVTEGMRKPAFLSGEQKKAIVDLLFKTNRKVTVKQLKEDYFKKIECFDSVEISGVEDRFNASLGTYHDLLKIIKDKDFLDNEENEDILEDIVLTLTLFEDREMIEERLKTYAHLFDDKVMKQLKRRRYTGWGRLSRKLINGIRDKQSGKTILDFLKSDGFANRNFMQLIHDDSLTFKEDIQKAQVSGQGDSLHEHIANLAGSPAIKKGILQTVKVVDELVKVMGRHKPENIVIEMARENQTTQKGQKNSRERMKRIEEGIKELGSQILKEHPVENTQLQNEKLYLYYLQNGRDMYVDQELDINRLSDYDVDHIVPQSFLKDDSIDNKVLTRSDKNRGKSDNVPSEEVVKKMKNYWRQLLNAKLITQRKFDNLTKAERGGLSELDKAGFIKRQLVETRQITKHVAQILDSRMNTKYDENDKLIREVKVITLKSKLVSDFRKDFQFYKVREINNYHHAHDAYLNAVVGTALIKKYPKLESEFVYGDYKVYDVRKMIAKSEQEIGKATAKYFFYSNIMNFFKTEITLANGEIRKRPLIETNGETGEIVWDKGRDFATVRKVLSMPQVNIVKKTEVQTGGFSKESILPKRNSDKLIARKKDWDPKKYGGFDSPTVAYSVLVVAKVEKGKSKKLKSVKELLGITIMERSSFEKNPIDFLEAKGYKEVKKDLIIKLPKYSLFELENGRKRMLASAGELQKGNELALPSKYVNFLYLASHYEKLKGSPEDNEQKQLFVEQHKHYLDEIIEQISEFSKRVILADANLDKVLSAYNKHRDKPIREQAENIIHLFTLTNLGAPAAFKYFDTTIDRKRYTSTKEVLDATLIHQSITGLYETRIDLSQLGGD

RKSKNFDK
transduction of mCherry protein into ovaries [1]: transduced into developing vitellogenic eggs

Saponin [reference compound]
effect of saponin as endosome escape reagent on editing ([2]; higher concentrations (8, 16 μg/mL)): inhibitory; also recorded: detrimental to the process | mosaic offspring per injected females with the endosomal release reagent [3]: 5% | LD50 [4]: 0.024 mM

O=C(N/N=C/c1ccc(O)c(O)c1)c1cc2ccccc2cc1O [dynasore]
altered offspring with the endosomal release reagent [3]: no altered offspring

Cl.N [Ammonium Chloride]
altered offspring with the endosomal release reagent [3]: no altered offspring

DIVKTTNY
transduction of mCherry protein into ovaries [5]: transduced into developing vitellogenic eggs

NFTKTKNY
transduction of mCherry protein into ovaries [6]: transduced into developing vitellogenic eggs

QVTKTQNF
transduction of mCherry protein into ovaries [7]: transduced into developing vitellogenic eggs

NLQQQRQHGKNGNQDYQDQSNEQRKNQRTSSEEDYSEEVKN (Drosophila melanogaster) [P2C]
gene editing outcome by targeting peptide (in words) ([2]; Cas9 RNP injections, with or without saponin): did not function robustly; also recorded: did not result in any visibly edited offspring; also recorded: did not generate knockouts | delivery of EGFP into eggs [8]: able to specifically deliver EGFP into the developing vitellogenic eggs, but not the immature eggs | localization of transduced EGFP ([9]; embryo development): observed in yolk granules (arrows) throughout embryo development | ovary uptake / delivery of EGFP in deletion analysis of DmYP1 ([9]; fragments expressed as EGFP fusion proteins): contained the RBR; also recorded: fully sufficient to deliver EGFP to Anopheles oocytes | dose dependence of P2C-mediated transduction of EGFP ([9]; injected 12 h, ovaries dissected 24 h PBF): dose-dependent

IVTKSKDL
transduction of EGFP protein into ovaries [10]: transduced into developing vitellogenic eggs

CC[C@@]1([C@@H]2O[C@@H]([C@H]3O[C@@](O)(CO)[C@H](C)C[C@@H]3C)C[C@@H]2C)CC[C@H]([C@]2(C)CC[C@]3(C[C@H](O)[C@@H](C)[C@@H]([C@@H](C)[C@@H](OC)[C@H](C)C(=O)O)O3)O2)O1 [Monensin]
mosaic offspring per injected females with the endosomal release reagent [3]: 5% | LD50 [4]: 1.0 mM

CCN(CC)CCCC(C)Nc1ccnc2cc(Cl)ccc12 (stereo not drawn) [Chloroquine]
effect on Cas9 cleavage function in vitro [11]: did not affect Cas9 cleavage function in vitro | effect on Cas9 cleavage function in vitro ([11]; listed as chloroquine): not inhibited | altered offspring with the endosomal release reagent [3]: no altered offspring

B1: DmYP1-EGFP: fusion protein of full length Drosophila melanogaster Yolk Protein 1 (439 amino acids) with EGFP (protein)
chain: PNGRMDNSVNQALKPSQWLSGSQLEAIPALDDFTIERLENMNLERGAELLQQVYHLSQIHHNVEPNYVPSGIQVYVPKPNGDKTVAPLNEMIQRLKQKQNFGEDEVTIIVTGLPQTSETVKKATRKLVQAYMQRYNLQQQRQHGKNGNQDYQDQSNEQRKNQRTSSEEDYSEEVKNAKTQSGDIIVIDLGSKLNTYERYAMLDIEKTGAKIGKWIVQMVNELDMPFDTIHLIGQNVGAHVAGAAAQEFTRLTGHKLRRVTGLDPSKIVAKSKNTLTGLARGDAEFVDAIHTSVYGMGTPIRSGDVDFYPNGPAAGVPGASNVVEAAMRATRYFAESVRPGNERSFPAVPANSLQQYKQNDGFGKRAYMGIDTAHDLEGDYILQVNPKSPFGRNAPAQKQSSYHGVHQAWNTNQDSKDYQ
modifications: left off: small tags and cut ends; large carriers
notes: fusion protein of full length Drosophila melanogaster Yolk Protein 1 (439 amino acids) with EGFP
% Follicles (Efficiency) ([9]; injection 12 h PBF): 100% and 98% | N Follicles with EGFP ([9]; injection 12 h PBF): 243 and 381 | N (showing EGFP in follicles) ([9]; injection 12 h PBF, 20 females injected per replicate): 17 and 19 | % Follicles (Efficiency) [9, 12]: 99.7%^ | N Follicles with EGFP [9, 12]: 624 | N (showing EGFP in follicles) ([9]; injection 12 h PBF, Total of 2 replicates, 40 injected): 36 | % Follicles (Efficiency) ([9]; injection 24 h PBF): 98% and 99% | N Follicles with EGFP ([9]; injection 24 h PBF): 245 and 197 | N (showing EGFP in follicles) ([9]; injection 24 h PBF, 20 females injected per replicate): 18 and 17 | % Follicles (Efficiency) [9, 13]: 98.2%^ | N Follicles with EGFP [9, 13]: 442 | N (showing EGFP in follicles) ([9]; injection 24 h PBF, Total of 2 replicates, 40 injected): 35 | primary oocytes with EGFP visualized ([9]; regardless of the timing of the injection, ovaries dissected 24-72 h PBF): 90-100%
